Source: PMC10701869, “Anti-Xanthine Oxidase 5′-Hydroxyhericenes A–D from the Edible Mushroom Hericium erinaceus and Structure Revision of 3-[2,3-Dihydroxy-4-(hydroxymethyl)tetrahydrofuran-1-yl]-pyridine-4,5-diol” (ACS Omega, 2023)
Where a name gives a salt, the structure may show the parent alone.

Key:
MDA-MB-231 = experiment: cells; set-up: species or system T47D, MRC-5; MTT cell viability, growth inhibition versus DMSO control, n = 4; details: Homo sapiens, MDA-MB-231, 48 h
Method: (§1) Cytotoxicity assays were evaluated against the following cell lines: T-47D ATCC, HTB-133 (hormone-dependent breast cancer), and MRC-5 ATCC, CCL171 (normal embryonic lung) from the American Type Culture Collection (ATCC, Manassas, VA) as well as MDA-MB-231 ((hormone-independent breast cancer) from M.D. Anderson Cancer Center, Houston, TX). […] The cutoff concentration is 50 μg mL^–1. Cell viability was determined using the MTT assay. […] The selectivity index between the T47D cancer cell line and the MRC-5 normal cell line is 13.5. […] In addition, this compound was previously reported to be noncytotoxic to MCF-7 cancer cell line.[36] This means that the growth inhibitory effect of hericerin depends on the types of breast cancer cell. T47D, MDA-MB-231, and MCF-7 are popular models in breast cancer studies. The T47D and MCF-7 are hormone-dependent breast cancer cells, but MDA-MB-231 is a hormone-independent breast cancer cell. […] Thus, hericerin (13) may be a good candidate to develop an anticancer agent against progesterone-sensitive breast cancer cells. Moreover, hericerin was reported to inhibit the growth of A549, SK-OV-3, SK-MEL-2, HCT-15, and HL-60 cancer cell lines.[10],[38] […] First, T47D and MDA-MB-231 breast cancer cells were exposed to compound 13 for 48 h, and the abundance of two apoptotic markers, namely, PARP and procaspase 3, was determined by Western blot.

T47D = experiment: cells; set-up: species or system MDA-MB-231, MRC-5; MTT cell viability, growth inhibition versus DMSO control, n = 4; details: Homo sapiens, 48 h
Method: Cytotoxicity assays were evaluated against the following cell lines: T-47D ATCC, HTB-133 (hormone-dependent breast cancer), and MRC-5 ATCC, CCL171 (normal embryonic lung) from the American Type Culture Collection (ATCC, Manassas, VA) as well as MDA-MB-231 ((hormone-independent breast cancer) from M.D. Anderson Cancer Center, Houston, TX). […] The cutoff concentration is 50 μg mL^–1. Cell viability was determined using the MTT assay. […] The selectivity index between the T47D cancer cell line and the MRC-5 normal cell line is 13.5. […] In addition, this compound was previously reported to be noncytotoxic to MCF-7 cancer cell line.[36] This means that the growth inhibitory effect of hericerin depends on the types of breast cancer cell. T47D, MDA-MB-231, and MCF-7 are popular models in breast cancer studies. The T47D and MCF-7 are hormone-dependent breast cancer cells, but MDA-MB-231 is a hormone-independent breast cancer cell. […] Thus, hericerin (13) may be a good candidate to develop an anticancer agent against progesterone-sensitive breast cancer cells. Moreover, hericerin was reported to inhibit the growth of A549, SK-OV-3, SK-MEL-2, HCT-15, and HL-60 cancer cell lines.[10],[38] To determine the possible mechanism, we performed an apoptosis assay. First, T47D and MDA-MB-231 breast cancer cells were exposed to compound 13 for 48 h, and the abundance of two apoptotic markers, namely, PARP and procaspase 3, was determined by Western blot.

xanthine oxidase = molecular target: T1, xanthine oxidase (Bos taurus, UniProt P80457); experiment: biochemical; set-up: xanthine oxidase inhibition (IXO assay), dose-response, n = 3
T1 construct: gene XDH
T1 sequence (P80457 2-1332): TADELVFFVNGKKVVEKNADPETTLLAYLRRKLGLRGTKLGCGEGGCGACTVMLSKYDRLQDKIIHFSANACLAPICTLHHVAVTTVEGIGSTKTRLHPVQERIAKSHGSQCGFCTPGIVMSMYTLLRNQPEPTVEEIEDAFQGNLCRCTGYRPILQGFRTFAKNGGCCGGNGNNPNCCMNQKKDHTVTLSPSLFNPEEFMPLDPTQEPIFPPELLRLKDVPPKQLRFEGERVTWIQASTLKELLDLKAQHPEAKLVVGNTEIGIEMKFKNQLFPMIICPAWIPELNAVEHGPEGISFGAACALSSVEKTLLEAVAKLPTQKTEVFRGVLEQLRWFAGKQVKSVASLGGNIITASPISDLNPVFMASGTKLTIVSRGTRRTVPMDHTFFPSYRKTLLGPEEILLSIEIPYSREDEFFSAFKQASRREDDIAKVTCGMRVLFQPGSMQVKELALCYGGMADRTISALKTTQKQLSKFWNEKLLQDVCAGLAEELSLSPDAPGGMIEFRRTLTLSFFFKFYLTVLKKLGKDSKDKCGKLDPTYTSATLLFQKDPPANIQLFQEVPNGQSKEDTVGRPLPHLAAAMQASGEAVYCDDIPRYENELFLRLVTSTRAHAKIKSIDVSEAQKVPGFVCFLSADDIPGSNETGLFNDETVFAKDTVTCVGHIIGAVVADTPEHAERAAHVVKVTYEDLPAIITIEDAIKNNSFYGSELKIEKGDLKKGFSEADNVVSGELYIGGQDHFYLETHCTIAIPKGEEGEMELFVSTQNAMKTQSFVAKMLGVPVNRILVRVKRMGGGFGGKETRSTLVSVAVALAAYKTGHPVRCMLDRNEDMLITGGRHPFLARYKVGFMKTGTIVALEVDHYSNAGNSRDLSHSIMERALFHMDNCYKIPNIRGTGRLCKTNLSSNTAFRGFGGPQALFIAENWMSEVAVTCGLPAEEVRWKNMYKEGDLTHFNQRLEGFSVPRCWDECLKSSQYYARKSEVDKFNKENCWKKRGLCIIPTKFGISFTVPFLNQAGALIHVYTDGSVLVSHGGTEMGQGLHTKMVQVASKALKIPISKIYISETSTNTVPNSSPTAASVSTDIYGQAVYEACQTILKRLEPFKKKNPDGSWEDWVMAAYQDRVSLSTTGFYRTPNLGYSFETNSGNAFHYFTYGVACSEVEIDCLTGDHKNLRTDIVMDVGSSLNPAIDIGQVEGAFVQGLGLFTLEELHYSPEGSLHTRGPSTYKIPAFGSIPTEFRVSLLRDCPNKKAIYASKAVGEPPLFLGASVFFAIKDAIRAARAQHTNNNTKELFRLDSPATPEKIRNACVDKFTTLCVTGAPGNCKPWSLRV
Method: The assays were evaluated against DPPH (diphenyl picrylhydracyl radical), XXO (reactive oxygen species generated by xanthine oxidase), and IXO (inhibition of xanthine oxidase). DMSO was used as a solvent and a negative control. […] The cutoff concentration is 100 μg mL^–1 for DPPH and 200 μg mL^–1 for XXO and IXO.

in vitro = experiment: in vitro; set-up: species or system T47D, MDA-MB-231; MTT cell viability, growth inhibition versus DMSO control, n = 4; details: human, mrc-5 cells; read-out: MRC-5 IC50
Method: as §1

| SMILES | inhibition at 50 µg/mL (MDA-MB-231) | inhibition at 50 µg/mL (T47D) | inhibition at 200 µg/mL (xanthine oxidase) | IC50 (T47D) | CC50 at 48 h (in vitro) | IC50 (MDA-MB-231) |
| --- | --- | --- | --- | --- | --- | --- |
| Nc1ncnc2c1ncn2[C@@H]1O[C@H](CO)[C@@H](O)[C@H]1O [compound 6, adenosine] | 2.5 ± 5% | 2.3 ± 2.9% | 27 ± 7.9% |  |  |  |
| COc1cccc2c1C(=O)c1c(O)c3c(c(O)c1C2=O)C[C@@](O)(C(=O)CO)C[C@@H]3O[C@H]1C[C@H](N)[C@H](O)[C@H](C)O1 [Doxorubicin·HCl, Doxorubicin hydrochloride] |  |  |  | 0.69 ± 0.03 µM | 2.75 ± 0.21 µM |  |
| COc1cc2c(c(O)c1C/C=C(\C)CCC=C(C)C)C(=O)N(CCc1ccccc1)C2 [compound 13, hericerin] |  |  | 43.3 ± 5% | 5.9 ± 1.6 µM | 79.6 ± 13.7 µM | 57.5 ± 5.4 µM |
